# Measurements taken from ChEMBL document CHEMBL4837226, “Discovery of pyrrole derivatives for the treatment of glioblastoma and chronic myeloid leukemia” (Eur J Med Chem, 2021).
# The source made the active and inactive calls. No cut-off for these calls is given here.
# Assays:
# [1] = Cytotoxicity against human U-343MG cells assessed as cell growth inhibition measured after 72 hrs by MTS colorimetric assay; format: functional, cell-based
# KBM5 [2] = assay: Induction of apoptosis in human KBM5 cells expressing T315I mutant assessed as decrease in […] expression at 1 to 10 uM measured after 24 hrs by Western blot analysis; format: functional, cell-based; settings: dose 1-10 µM
# SW-620 = assay: Cytotoxicity against human SW-620 cells assessed as cell growth inhibition measured after 48 hrs by XTT dye based assay; format: functional; settings: SW-620, 48 h
# KBM5 [3] = assay: Potentiation of ponatinib-induced apoptosis human KBM5 cells expressing T315I mutant assessed as increase in apoptotic cells at 5 nM measured after 48 hrs by annexin V staining based flow cytometry analysis (reference value: 35 %); format: functional
# [4] = target: T1, DNA topoisomerase II (Homo sapiens) (UniProt P11388+Q02880); assay: Inhibition of human topoisomerase II assessed as reduction in decantenation using kinetoplast DNA as a substrate at 100 uM measured after 1 hr by ethidium bromide staining based agarose gel electrophoresis analysis relative to control; format: protein assay
# U-87 MG [5] = assay: Antitumor activity against human U-87MG cells xenografted in BALB/c nu/nu mouse assessed as reduction in CD133 marker expression at 25 mg/kg, ip administered every 2 days for 35 days by DAPI staining based immunofluorescence analysis; format: functional, organism-based; settings: U-87MG ATCC, time 35.0 day
# Tubulin (Homo sapiens) [6] = target: T2, Tubulin (Homo sapiens) (UniProt P68371+Q9H4B7+P0DPH7+P68366+Q13509+Q71U36+P04350+Q3ZCM7+P07437+P68363+Q9BQE3+Q6PEY2+Q13885+Q9BVA1+Q9BUF5); assay: Inhibition of [3H]Colchicine binding to tubulin (unknown origin) at 1 uM measured after 10 mins by DEAE-Cellulose filter method relative to control; format: protein-complex assay
# U-87 MG [7] = assay: Antitumor activity against human U-87MG cells xenografted in BALB/c nu/nu mouse assessed as reduction in CD31 marker expression at 25 mg/kg, ip administered every 2 days for 35 days by DAPI staining based immunofluorescence analysis; format: functional, organism-based; settings: U-87MG ATCC, time 35.0 day
# MCF7 = assay: Cytotoxicity against human MCF7 cells assessed as cell growth inhibition measured after 96 hrs; format: functional, cell-based; settings: MCF7, 96 h
# [8] = target: Bcr/Abl fusion protein (Homo sapiens) (UniProt P00519+P11274); assay: Inhibition of Bcr-Abl tyrosine phosphorylation in human KBM5 cells expressing T315I mutant at 1 to 10 nM in the presence of ponatinib measured after 24 hrs by western blot analysis; format: cell-based; settings: dose 1-10 nM
# KBM5 [9] = assay: Cytotoxicity against imatinib mesylate resistant wild-type human KBM5 cells expressing T315I mutant assessed as cell growth inhibition measured after 48 hrs by MTT assay; format: functional, cell-based; settings: KBM5, 48 h
# U-87 MG [10] = assay: Antitumor activity against human U-87MG cells xenografted in BALB/c nu/nu mouse assessed as reduction in tumor volume at 25 mg/kg, ip administered every 2 days for 35 days; format: functional, organism-based; settings: U-87MG ATCC, time 35.0 day
# KBM5 [11] = assay: Cytotoxicity against Imatinib mesylate sensitive wild-type human KBM5 cells assessed as cell growth inhibition measured after 48 hrs by MTT assay; format: functional, cell-based; settings: KBM5, 48 h
# KBM5 [12] = assay: Potentiation of ponatinib-induced mitochondrial membrane depolarization in human KBM5 cells expressing T315I mutant at 5 nM in the presence of ponatinib measured upto 48 hrs by JC-1 staining based flow cytometry analysis (Rvb= 32.7 %); format: functional; settings: time hrs <=48
# [13] = Cytotoxicity against human U343MG cells assessed as cell growth inhibition by measuring maximum efficacy measured after 72 hrs by MTS colorimetric assay relative to control; format: functional; settings: U-343MG
# U-87 MG [14] = assay: Antitumor activity against human U-87MG cells xenografted in BALB/c nu/nu mouse assessed as reduction in glioma tumors at 25 mg/kg, ip administered every 2 days for 35 days by hematoxylin and eosin staining based assay; format: functional, organism-based; settings: U-87MG ATCC, time 35.0 day
# U-87 MG [15] = assay: Antitumor activity against human U-87MG cells xenografted in BALB/c nu/nu mouse assessed as reduction in tumor weight at 25 mg/kg, ip administered every 2 days for 35 days; format: functional, organism-based; settings: U-87MG ATCC, time 35.0 day
# KBM5 [16] = assay: Potentiation of ponatinib-induced apoptosis human KBM5 cells assessed as increase in apoptotic cells at 5 nM measured after 48 hrs by annexin V staining based flow cytometry analysis; format: functional, cell-based
# KBM5 [17] = assay: Induction of apoptosis in human KBM5 cells expressing T315I mutant assessed as increase in cytochrome C expression at 1 to 10 uM measured after 24 hrs by western blot analysis; format: functional, cell-based; settings: dose 1-10 µM
# [18] = target: T1, DNA topoisomerase II (Homo sapiens); assay: Inhibition of human topoisomerase II assessed as reduction in decantenation using kinetoplast DNA as a substrate at 10 to 50 uM measured after 1 hr by ethidium bromide staining based agarose gel electrophoresis analysis; format: protein assay; settings: dose 10-50 µM
# U-87 MG [19] = assay: Cytotoxicity against human U-87MG cells assessed as cell growth inhibition measured after 48 hrs by MTS colorimetric assay; format: functional, cell-based, U-87MG ATCC
# KBM5 [20] = assay: Induction of apoptosis in human KBM5 cells expressing T315I mutant assessed as increase in Bcr-Abl expression at 1 to 10 uM measured after 24 hrs by western blot analysis; format: functional, cell-based; settings: dose 1-10 µM
# KBM5 [21] = assay: Potentiation of ponatinib-induced mitochondrial membrane depolarization in human KBM5 cells expressing T315I mutant at 5 nM measured upto 48 hrs by JC-1 staining based flow cytometry analysis; format: functional, cell-based; settings: time hrs <=48
# Tubulin (Homo sapiens) [22] = target: T2, Tubulin (Homo sapiens); assay: Inhibition of [3H]Colchicine binding to tubulin (unknown origin) at 5 uM measured after 10 mins by DEAE-Cellulose filter method relative to control; format: protein-complex assay
# U-87 MG [23] = assay: Antitumor activity against human U-87MG cells xenografted in BALB/c nu/nu mouse assessed as reduction in GFAP expression at 25 mg/kg, ip administered every 2 days for 35 days by DAPI staining based immunofluorescence analysis; format: functional, organism-based; settings: U-87MG ATCC, time 35.0 day
# Sequence of Bcr/Abl fusion protein (Homo sapiens) (P00519 whole entry, looked up, the tested form may be a part): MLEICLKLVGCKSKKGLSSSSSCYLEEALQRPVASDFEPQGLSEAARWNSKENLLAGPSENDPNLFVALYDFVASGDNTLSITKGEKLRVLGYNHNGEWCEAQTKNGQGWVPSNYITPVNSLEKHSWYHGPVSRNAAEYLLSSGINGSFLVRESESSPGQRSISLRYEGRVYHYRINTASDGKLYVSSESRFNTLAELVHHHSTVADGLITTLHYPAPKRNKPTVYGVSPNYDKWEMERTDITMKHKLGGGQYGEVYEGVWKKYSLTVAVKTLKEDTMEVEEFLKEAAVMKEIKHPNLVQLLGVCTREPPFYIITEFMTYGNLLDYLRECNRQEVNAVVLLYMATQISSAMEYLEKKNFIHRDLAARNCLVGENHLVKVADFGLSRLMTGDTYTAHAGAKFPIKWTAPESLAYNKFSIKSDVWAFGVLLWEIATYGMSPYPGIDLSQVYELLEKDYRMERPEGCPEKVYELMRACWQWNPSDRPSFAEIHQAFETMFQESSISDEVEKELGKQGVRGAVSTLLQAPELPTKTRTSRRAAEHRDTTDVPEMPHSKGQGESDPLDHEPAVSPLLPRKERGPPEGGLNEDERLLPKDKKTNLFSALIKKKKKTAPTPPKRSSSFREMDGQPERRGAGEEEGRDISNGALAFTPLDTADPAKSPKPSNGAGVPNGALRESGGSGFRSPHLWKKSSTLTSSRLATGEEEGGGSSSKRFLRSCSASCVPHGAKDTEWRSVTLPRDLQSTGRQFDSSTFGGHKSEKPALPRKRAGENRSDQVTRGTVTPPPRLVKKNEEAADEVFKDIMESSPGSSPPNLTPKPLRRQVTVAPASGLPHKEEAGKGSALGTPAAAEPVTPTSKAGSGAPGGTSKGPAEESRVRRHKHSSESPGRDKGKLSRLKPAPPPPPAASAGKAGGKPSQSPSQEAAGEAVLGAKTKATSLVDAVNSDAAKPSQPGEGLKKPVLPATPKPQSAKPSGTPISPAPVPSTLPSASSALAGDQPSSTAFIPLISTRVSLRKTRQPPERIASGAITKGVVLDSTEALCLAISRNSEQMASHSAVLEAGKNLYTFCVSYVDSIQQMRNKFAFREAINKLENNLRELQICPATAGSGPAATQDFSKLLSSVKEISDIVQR
# Sequence of Bcr/Abl fusion protein (Homo sapiens) (P11274 whole entry, looked up, the tested form may be a part): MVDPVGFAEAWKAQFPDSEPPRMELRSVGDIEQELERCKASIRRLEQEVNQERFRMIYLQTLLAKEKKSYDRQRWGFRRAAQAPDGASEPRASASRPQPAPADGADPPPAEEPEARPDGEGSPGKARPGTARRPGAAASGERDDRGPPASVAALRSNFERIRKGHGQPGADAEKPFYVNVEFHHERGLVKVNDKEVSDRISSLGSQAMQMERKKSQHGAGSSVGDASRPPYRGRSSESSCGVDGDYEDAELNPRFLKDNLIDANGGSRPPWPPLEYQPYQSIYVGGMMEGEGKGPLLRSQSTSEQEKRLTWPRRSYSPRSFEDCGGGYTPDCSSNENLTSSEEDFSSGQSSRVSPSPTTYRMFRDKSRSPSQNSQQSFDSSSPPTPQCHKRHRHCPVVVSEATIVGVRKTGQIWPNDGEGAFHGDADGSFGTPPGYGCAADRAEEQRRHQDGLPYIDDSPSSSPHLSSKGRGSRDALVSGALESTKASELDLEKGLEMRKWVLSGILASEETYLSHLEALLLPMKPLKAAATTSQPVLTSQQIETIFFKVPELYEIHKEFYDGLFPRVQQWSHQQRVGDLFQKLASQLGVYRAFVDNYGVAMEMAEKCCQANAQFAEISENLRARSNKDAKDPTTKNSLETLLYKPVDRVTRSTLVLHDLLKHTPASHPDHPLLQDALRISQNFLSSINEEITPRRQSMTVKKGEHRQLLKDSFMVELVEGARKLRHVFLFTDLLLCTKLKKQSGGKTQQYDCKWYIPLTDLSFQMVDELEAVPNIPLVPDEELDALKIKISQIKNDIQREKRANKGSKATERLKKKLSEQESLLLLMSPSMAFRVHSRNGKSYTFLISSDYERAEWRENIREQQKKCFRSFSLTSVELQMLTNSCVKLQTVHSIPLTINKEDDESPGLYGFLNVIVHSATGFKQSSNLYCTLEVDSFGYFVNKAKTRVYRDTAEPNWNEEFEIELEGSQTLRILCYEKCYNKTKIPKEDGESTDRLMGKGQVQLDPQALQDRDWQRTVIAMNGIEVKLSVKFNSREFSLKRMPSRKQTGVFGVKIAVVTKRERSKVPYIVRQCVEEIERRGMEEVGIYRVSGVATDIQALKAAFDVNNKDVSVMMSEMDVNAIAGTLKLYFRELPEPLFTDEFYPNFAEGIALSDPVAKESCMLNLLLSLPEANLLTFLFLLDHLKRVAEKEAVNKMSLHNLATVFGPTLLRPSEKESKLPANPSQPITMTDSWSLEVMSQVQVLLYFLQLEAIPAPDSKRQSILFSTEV
compound,measurement,setting,value
COc1cc(C(=O)c2cn(-c3ccc(C)cc3)cc2-c2ccsc2)cc(OC)c1OC,IC50,[1],18.6 nM
same,Activity,KBM5 [2],Active
same,IC50,SW-620,111 nM
same,Activity,KBM5 [3],70%
same,inhibition,[4],100%
same,Activity,U-87 MG [5],Active
same,inhibition,Tubulin (Homo sapiens) [6],71%
same,Activity,U-87 MG [7],Active
same,IC50,MCF7,4 nM
same,inhibition,[8],Active
same,IC50,KBM5 [9],8.8 nM
same,Activity,U-87 MG [10],Active
same,IC50,KBM5 [11],8.2 nM
same,Activity,KBM5 [12],56.7%
same,Emax,[13],48.5%
same,Activity,U-87 MG [14],Active
same,Activity,U-87 MG [15],Active
same,Activity,KBM5 [16],Active
same,Activity,KBM5 [17],Active
same,inhibition,[18],inactive
same,IC50,U-87 MG [19],19.4 nM
same,Activity,KBM5 [20],Active
same,Activity,KBM5 [21],Active
same,inhibition,Tubulin (Homo sapiens) [22],90%
same,Activity,U-87 MG [23],Active
